Experimental data published in the NIST ThermoML archive (doi:10.1021/je060116w).
± gives the expanded uncertainty stated by the source.

Details: Hot wire method

## FC(F)CC(F)(F)F [1,1,1,3,3-pentafluoropropane]
374.84 K, 1243 kPa, Gas
  thermal conductivity: 0.01982 ± 0.00049 W/m/K
374.99 K, 997 kPa, Gas
  thermal conductivity: 0.01966 ± 0.00048 W/m/K
375.06 K, Liquid
  thermal conductivity: 0.0631 ± 0.0013 W/m/K
375.13 K, 604.2 kPa, Gas
  thermal conductivity: 0.01956 ± 0.00048 W/m/K
375.31 K, 1243 kPa, Gas
  thermal conductivity: 0.01995 ± 0.00049 W/m/K
375.44 K, Liquid
  thermal conductivity: 0.06262 ± 0.0013 W/m/K
375.48 K, 997 kPa, Gas
  thermal conductivity: 0.01969 ± 0.00048 W/m/K
375.71 K, 604.2 kPa, Gas
  thermal conductivity: 0.01959 ± 0.00048 W/m/K
375.83 K, 1243 kPa, Gas
  thermal conductivity: 0.02001 ± 0.00049 W/m/K
376.05 K, 997 kPa, Gas
  thermal conductivity: 0.01976 ± 0.00049 W/m/K
376.31 K, 604.2 kPa, Gas
  thermal conductivity: 0.01963 ± 0.00048 W/m/K
384.7 K, Liquid
  thermal conductivity: 0.06117 ± 0.0013 W/m/K
384.79 K, 1489.1 kPa, Gas
  thermal conductivity: 0.0211 ± 0.00052 W/m/K
385.04 K, 998.9 kPa, Gas
  thermal conductivity: 0.02061 ± 0.0005 W/m/K
385.14 K, Liquid
  thermal conductivity: 0.0606 ± 0.0013 W/m/K
385.2 K, 598.1 kPa, Gas
  thermal conductivity: 0.02052 ± 0.0005 W/m/K
385.21 K, 1489.1 kPa, Gas
  thermal conductivity: 0.02101 ± 0.00051 W/m/K
385.48 K, Liquid
  thermal conductivity: 0.05985 ± 0.0012 W/m/K
385.55 K, 998.9 kPa, Gas
  thermal conductivity: 0.02067 ± 0.00051 W/m/K
385.68 K, 1489.1 kPa, Gas
  thermal conductivity: 0.02112 ± 0.00052 W/m/K
385.76 K, 598.1 kPa, Gas
  thermal conductivity: 0.02059 ± 0.0005 W/m/K
386.13 K, 998.9 kPa, Gas
  thermal conductivity: 0.02072 ± 0.00051 W/m/K
386.35 K, 598.1 kPa, Gas
  thermal conductivity: 0.0206 ± 0.0005 W/m/K
394.71 K, Liquid
  thermal conductivity: 0.05833 ± 0.0012 W/m/K
394.74 K, 1765.3 kPa, Gas
  thermal conductivity: 0.02246 ± 0.00055 W/m/K
394.9 K, 1498.3 kPa, Gas
  thermal conductivity: 0.02208 ± 0.00054 W/m/K
395.07 K, 602.5 kPa, Gas
  thermal conductivity: 0.02148 ± 0.00052 W/m/K
395.09 K, 1004.6 kPa, Gas
  thermal conductivity: 0.02149 ± 0.00052 W/m/K
395.1 K, Liquid
  thermal conductivity: 0.05813 ± 0.0012 W/m/K
395.16 K, 1765.3 kPa, Gas
  thermal conductivity: 0.02251 ± 0.00055 W/m/K
395.36 K, 1498.3 kPa, Gas
  thermal conductivity: 0.02216 ± 0.00054 W/m/K
395.52 K, 1765.3 kPa, Gas
  thermal conductivity: 0.02258 ± 0.00055 W/m/K
395.52 K, Liquid
  thermal conductivity: 0.05783 ± 0.0012 W/m/K
395.58 K, 602.5 kPa, Gas
  thermal conductivity: 0.02153 ± 0.00052 W/m/K
395.6 K, 1004.6 kPa, Gas
  thermal conductivity: 0.02161 ± 0.00053 W/m/K
395.75 K, 1498.3 kPa, Gas
  thermal conductivity: 0.02218 ± 0.00054 W/m/K
395.94 K, 602.5 kPa, Gas
  thermal conductivity: 0.02147 ± 0.00052 W/m/K
396.04 K, 1004.6 kPa, Gas
  thermal conductivity: 0.02168 ± 0.00053 W/m/K
404.55 K, 2269.8 kPa, Gas
  thermal conductivity: 0.02483 ± 0.0006 W/m/K
404.75 K, 1999.2 kPa, Gas
  thermal conductivity: 0.02362 ± 0.00057 W/m/K
404.77 K, Liquid
  thermal conductivity: 0.05598 ± 0.0012 W/m/K
404.85 K, 1500.7 kPa, Gas
  thermal conductivity: 0.02277 ± 0.00055 W/m/K
404.89 K, 2269.8 kPa, Gas
  thermal conductivity: 0.02475 ± 0.0006 W/m/K
405 K, 998.4 kPa, Gas
  thermal conductivity: 0.02248 ± 0.00055 W/m/K
405.12 K, 604.3 kPa, Gas
  thermal conductivity: 0.02248 ± 0.00055 W/m/K
405.12 K, Liquid
  thermal conductivity: 0.05595 ± 0.0012 W/m/K
405.14 K, 1999.2 kPa, Gas
  thermal conductivity: 0.02364 ± 0.00057 W/m/K
405.29 K, 2269.8 kPa, Gas
  thermal conductivity: 0.02484 ± 0.0006 W/m/K
405.3 K, 1500.7 kPa, Gas
  thermal conductivity: 0.02285 ± 0.00056 W/m/K
405.48 K, 998.4 kPa, Gas
  thermal conductivity: 0.02253 ± 0.00055 W/m/K
405.54 K, Liquid
  thermal conductivity: 0.05564 ± 0.0011 W/m/K
405.55 K, 1999.2 kPa, Gas
  thermal conductivity: 0.02369 ± 0.00057 W/m/K
405.62 K, 604.3 kPa, Gas
  thermal conductivity: 0.02249 ± 0.00055 W/m/K
405.78 K, 1500.7 kPa, Gas
  thermal conductivity: 0.02302 ± 0.00056 W/m/K
406.02 K, 998.4 kPa, Gas
  thermal conductivity: 0.0227 ± 0.00055 W/m/K
406.18 K, 604.3 kPa, Gas
  thermal conductivity: 0.02253 ± 0.00055 W/m/K
414.76 K, 2496.6 kPa, Gas
  thermal conductivity: 0.02664 ± 0.00064 W/m/K
414.79 K, Liquid
  thermal conductivity: 0.05331 ± 0.0011 W/m/K
414.88 K, 1998 kPa, Gas
  thermal conductivity: 0.02456 ± 0.00059 W/m/K
415.04 K, 995.9 kPa, Gas
  thermal conductivity: 0.02342 ± 0.00057 W/m/K
415.04 K, 1502.2 kPa, Gas
  thermal conductivity: 0.02374 ± 0.00058 W/m/K
415.15 K, 604.1 kPa, Gas
  thermal conductivity: 0.02337 ± 0.00057 W/m/K
415.16 K, Liquid
  thermal conductivity: 0.05316 ± 0.0011 W/m/K
415.25 K, 2496.6 kPa, Gas
  thermal conductivity: 0.02694 ± 0.00065 W/m/K
415.45 K, 1998 kPa, Gas
  thermal conductivity: 0.0246 ± 0.0006 W/m/K
415.54 K, Liquid
  thermal conductivity: 0.0529 ± 0.0011 W/m/K
415.64 K, 604.1 kPa, Gas
  thermal conductivity: 0.02346 ± 0.00057 W/m/K
415.64 K, 1502.2 kPa, Gas
  thermal conductivity: 0.02378 ± 0.00058 W/m/K
415.66 K, 2496.6 kPa, Gas
  thermal conductivity: 0.02696 ± 0.00065 W/m/K
415.68 K, 995.9 kPa, Gas
  thermal conductivity: 0.02355 ± 0.00057 W/m/K
415.92 K, 1998 kPa, Gas
  thermal conductivity: 0.02467 ± 0.0006 W/m/K
416.18 K, 1502.2 kPa, Gas
  thermal conductivity: 0.02399 ± 0.00058 W/m/K
416.19 K, 604.1 kPa, Gas
  thermal conductivity: 0.02348 ± 0.00057 W/m/K
416.22 K, 995.9 kPa, Gas
  thermal conductivity: 0.0236 ± 0.00057 W/m/K
